Patent US11648254B2 (Kumquat Biosciences Inc., priority 2021, dated 2023)
Like-named read-outs stand apart in the source and are kept apart here.

What was measured:
[1] = test system: NCI-H1975 cells (EGFR T790M L858R); assay: EGFR-SOS cellular inhibition assay (CellTiter-Glo, 3D); assay type: cell-based; settings: Homo sapiens
[2] = molecular target: SOS1 (Homo sapiens (Human), UniProt Q07889); assay: Ras-SOS interaction assay (HTRF); assay type: biochemical
[3] = Metabolic (microsomal) stability assay; assay type: in vitro ADME; settings: mouse liver microsomes, T1/2; read-out: DMPK-invitro-metabolic Stability (Mouse T1/2)
Text: Example 12: Metabolic (Microsomal) Stability Assay

[4] = test system: MIA PaCa-2 cells (K-Ras G12C); assay: Ras-SOS cellular growth inhibition assay (CellTiter-Glo, 3D); assay type: cell-based; settings: Homo sapiens
Outline: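 Growth read by CellTiter-Glo luminescence about 5 days after dosing with 3-fold dilutions (9 points), added one day post-seeding. Cells: MIA PaCa-2, 3D culture on ultra-low-attachment surface, medium DMEM/Ham's F12 plus 10% FCS and 2.5% horse serum; IC50 by four-parameter fit.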

[5] = 120 h, NCI-H1975, 3D proliferation, about 5 days, read-out: Bio-Cell-Prolif-3D (H1975 IC50)
[6] = NCI-H1975, EGFR T790M L858R, read-out: IC50 in inhibiting growth of NCI-H1975 cell line
[7] = K-RasG13D utilized, read-out: IC50 inhibition of SOS
[8] = K-RasG13D, read-out: IC50 value against SOS1
[9] = MIA PaCa-2, 120 h, MIA PaCa-2, 3D proliferation, about 5 days, read-out: Bio-Cell-Prolif-3D (MiaPaca2 IC50)
[10] = MIA PaCa-2, MIA PaCa-2, read-out: IC50 in inhibiting MIA PaCa-2 cell growth

SOS1, sequence (Q07889 564-1049): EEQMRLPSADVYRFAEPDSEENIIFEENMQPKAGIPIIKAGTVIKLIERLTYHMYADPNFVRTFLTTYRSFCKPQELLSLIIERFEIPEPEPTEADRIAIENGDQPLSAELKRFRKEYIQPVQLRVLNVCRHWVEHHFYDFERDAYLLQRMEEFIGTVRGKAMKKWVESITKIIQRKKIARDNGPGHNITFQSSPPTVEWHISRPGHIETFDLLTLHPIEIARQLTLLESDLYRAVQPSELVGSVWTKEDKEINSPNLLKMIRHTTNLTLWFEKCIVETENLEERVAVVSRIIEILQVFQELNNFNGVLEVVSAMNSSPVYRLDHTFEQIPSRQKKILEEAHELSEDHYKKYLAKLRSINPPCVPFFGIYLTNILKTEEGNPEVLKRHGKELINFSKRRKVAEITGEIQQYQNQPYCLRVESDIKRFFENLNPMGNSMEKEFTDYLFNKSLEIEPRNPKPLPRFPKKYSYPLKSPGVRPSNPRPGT

IC50 [1, 5] [nM]	IC50 [1, 6] [nM]	IC50 [2, 7] [nM]	IC50 [2, 8] [nM]	half-life [3] [h]	IC50 [4, 9] [nM]	IC50 [4, 10] [nM]	SMILES
≤ 1000	< 500	< 100	< 50	> 3.33	≤ 1000	< 500	Cc1nc(N[C@H](C)c2cccc(C(F)(F)C(C)(C)O)c2)c2cc(C3(C#N)CC3)c(Cl)nc2n1 [Compound 193, (R)-1-(7-chloro-4-((1-(3-(1,1-difluoro-2-hydroxy-2-methylpropyl)phenyl)ethyl)amino)-2-methylpyrido[2,3-d]pyrimidin-6-yl)cyclopropane-1-carbonitrile]
≤ 1000	< 500	< 100	< 50	> 3.33	1000 to 10000	–	C[C@@H](Nc1ncnc2nc(Cl)c(C3(C#N)CC3)cc12)c1cccc(C(F)(F)C(C)(C)O)c1F [Compound 361, (R)-1-(7-chloro-4-((1-(3-(1,1-difluoro-2-hydroxy-2-methylpropyl)-2-fluorophenyl)ethyl)amino)pyrido[2,3-d]pyrimidin-6-yl)cyclopropane-1-carbonitrile]
≤ 1000	–	100 to 1000	–	0.49	≤ 1000	< 500	C[C@@H](Nc1ncnc2nc(OC3COC3)c(C3(C#N)CC3)cc12)c1cccc(C(F)F)c1F [Compound 400, (R)-1-(4-((1-(3-(difluoromethyl)-2-fluorophenyl)ethyl)amino)-7-(oxetan-3-yloxy)pyrido[2,3-d]pyrimidin-6-yl)cyclopropane-1-carbonitrile]
≤ 1000	< 500	< 100	< 50	> 3.33	≤ 1000	< 500	C[C@@H](Nc1ncnc2nc(Cl)c(C3(C#N)CC3)cc12)c1cccc(C(F)(F)[C@@H](C)O)c1 [Compound 214, 1-(7-chloro-4-(((R)-1-(3-((R)-1,1-difluoro-2-hydroxypropyl)phenyl)ethyl)amino)pyrido[2,3-d]pyrimidin-6-yl) cyclopropane-1-carbonitrile]
≤ 1000	< 500	< 100	< 50	2.57	≤ 1000	–	C[C@@H](Nc1ncnc2nc(Cl)c(C3(C#N)CC3)cc12)c1cccc(C(F)F)c1F [Compound 200, (R)-1-(7-chloro-4-((1-(3-(difluoromethyl)-2-fluorophenyl)ethyl)amino)pyrido[2,3-d]pyrimidin-6-yl)cyclopropane-1-carbonitrile]
≤ 1000	< 500	< 100	< 50	0.517	≤ 1000	< 500	Cc1nc(N[C@H](C)c2cccc(C(F)F)c2F)c2cc(C3(C#N)CC3)c(Cl)nc2n1 [Compound 352, (R)-1-(7-chloro-4-((1-(3-(difluoromethyl)-2-fluorophenyl)ethyl)amino)-2-methylpyrido[2,3-d]pyrimidin-6-yl)cyclopropane-1-carbonitrile]
≤ 1000	–	< 100	< 50	0.352	≤ 1000	< 500	Cc1nc(N[C@H](C)c2cccc(C(F)(F)CO)c2F)c2cc(C3(C#N)CC3)c(Cl)nc2n1 [Compound 195, (R)-1-(7-chloro-4-((1-(3-(1,1-difluoro-2-hydroxyethyl)-2-fluorophenyl)ethyl)amino)-2-methylpyrido[2,3-d]pyrimidin-6-yl)cyclopropane-1-carbonitrile]
≤ 1000	< 500	< 100	< 50	> 3.33	≤ 1000	–	C[C@H](O)C(F)(F)c1cccc([C@@H](C)Nc2ncnc3nc(Cl)c(C4(C#N)CC4)cc23)c1F [Compound 417, 1-(7-chloro-4-(((R)-1-(3-((S)-1,1-difluoro-2-hydroxypropyl)-2-fluorophenyl)ethyl)amino)pyrido[2,3-d]pyrimidin-6-yl)cyclopropane-1-carbonitrile]
≤ 1000	< 500	< 100	< 50	1.67	≤ 1000	< 500	Cc1nc(N[C@H](C)c2cccc(C(F)(F)[C@H](C)O)c2)c2cc(C3(C#N)CC3)c(Cl)nc2n1 [Compound 220, 1-(7-chloro-4-(((R)-1-(3-((S)-1,1-difluoro-2-hydroxypropyl)phenyl)ethyl)amino)-2-methylpyrido[2,3-d]pyrimidin-6-yl)cyclopropane-1-carbonitrile]
≤ 1000	< 500	< 100	< 50	> 3.33	≤ 1000	–	C[C@@H](Nc1ncnc2nc(Cl)c(C3(C#N)CC3)cc12)c1cccc(C(F)(F)[C@@H](C)O)c1F [Compound 365, 1-(7-chloro-4-(((R)-1-(3-((R)-1,1-difluoro-2-hydroxypropyl)-2-fluorophenyl)ethyl)amino)pyrido [2,3-d]pyrimidin-6-yl)cyclopropane-1-carbonitrile]
≤ 1000	< 500	< 100	< 50	0.703	≤ 1000	–	Cc1nc(N[C@H](C)c2cccc(C(F)F)c2F)c2cc(C3(C#N)CC3)c(OC3CN(C)C3)nc2n1 [Compound 234, (R)-1-(4-((1-(3-(difluoromethyl)-2-fluorophenyl)ethyl)amino)-2-methyl-7-((1-methylazetidin-3-yl)oxy)pyrido[2,3-d]pyrimidin-6-yl)cyclopropane-1-carbonitrile]
≤ 1000	< 500	< 100	< 50	1.65	≤ 1000	< 500	Cc1nc(N[C@H](C)c2cccc(C(F)(F)[C@@H](C)O)c2)c2cc(C3(C#N)CC3)c(Cl)nc2n1 [Compound 219, 1-(7-chloro-4-(((R)-1-(3-((R)-1,1-difluoro-2-hydroxypropyl)phenyl)ethyl)amino)-2-methylpyrido[2,3-d]pyrimidin-6-yl)cyclopropane-1-carbonitrile]
≤ 1000	< 500	< 100	< 50	> 3.33	≤ 1000	< 500	C[C@@H](Nc1ncnc2nc(Cl)c(C3(C#N)CC3)cc12)c1cccc(C(F)(F)C(C)(C)O)c1 [Compound 363, (R)-1-(7-chloro-4-((1-(3-(1,1-difluoro-2-hydroxy-2-methylpropyl)phenyl)ethyl)amino)pyrido [2,3-d]pyrimidin-6-yl)cyclopropane-1-carbonitrile]
≤ 1000	< 500	100 to 1000	–	0.0933	≤ 1000	–	C[C@@H](Nc1ncnc2nc(O[C@@H]3CCOC3)c(C3(C#N)CC3)cc12)c1cccc(C(F)F)c1F [Compound 409, 1-(4-(((R)-1-(3-(difluoromethyl)-2-fluorophenyl)ethyl)amino)-7-(((R)-tetrahydrofuran-3-yl)oxy)pyrido[2,3-d]pyrimidin-6-yl)cyclopropane-1-carbonitrile]
≤ 1000	< 500	< 100	< 50	0.817	1000 to 10000	–	C[C@@H](Nc1ncnc2nc(Cl)c(C3(C#N)CC3)cc12)c1cccc(C(F)(F)CO)c1F [Compound 362, (R)-1-(7-chloro-4-((1-(3-(1,1-difluoro-2-hydroxyethyl)-2-fluorophenyl)ethyl)amino)pyrido[2,3-d]pyrimidin-6-yl)cyclopropane-1-carbonitrile]
≤ 1000	< 500	< 100	–	> 3.33	≤ 1000	< 500	Cc1nc(N[C@H](C)c2cccc(C(F)(F)C(C)(C)O)c2F)c2cc(C3(C#N)CC3)c(Cl)nc2n1 [Compound 170, (R)-1-(7-chloro-4-((1-(3-(1,1-difluoro-2-hydroxy-2-methylpropyl)-2-fluorophenyl)ethyl)amino)-2-methylpyrido[2,3-d]pyrimidin-6-yl)cyclopropane-1-carbonitrile]
≤ 1000	–	< 100	–	0.322	≤ 1000	< 500	Cc1nc(N[C@H](C)c2cccc(C(F)F)c2F)c2cc(C3(C#N)CC3)c(OC3COC3)nc2n1 [Compound 402, (R)-1-(4-((1-(3-(difluoromethyl)-2-fluorophenyl)ethyl)amino)-2-methyl-7-(oxetan-3-yloxy)pyrido[2,3-d]pyrimidin-6-yl)cyclopropane-1-carbonitrile]
≤ 1000	< 500	< 100	< 50	> 3.33	≤ 1000	–	C[C@@H](Nc1ncnc2nc(OC3CN(C)C3)c(C3(C#N)CC3)cc12)c1cccc(C(F)F)c1F [Compound 405, (R)-1-(4-((1-(3-(difluoromethyl)-2-fluorophenyl)ethyl)amino)-7-((1-methylazetidin-3-yl)oxy)pyrido[2,3-d]pyrimidin-6-yl)cyclopropane-1-carbonitrile]
